Where two headings read alike, the source gives them in different places.
Columns and labels:
[1] = target: T1, acetylcholinesterase (AChE) (Electrophorus electricus, UniProt O42275); test: In vitro cholinesterase activity assay (Ellman), AChE; type: biochemical; conditions: for IC50: concentrations up to 125 μM, Mean ± SEM, read-out: IC50 Acetylcholine Esterase Mean ± SEM; for SI: selectivity index (BChE/AChE): ratio of IC50 BChE/AChE
T1 construct: purchased Sigma-Aldrich Co. (St. Louis, MO, USA)
T1 sequence (O42275 24-633): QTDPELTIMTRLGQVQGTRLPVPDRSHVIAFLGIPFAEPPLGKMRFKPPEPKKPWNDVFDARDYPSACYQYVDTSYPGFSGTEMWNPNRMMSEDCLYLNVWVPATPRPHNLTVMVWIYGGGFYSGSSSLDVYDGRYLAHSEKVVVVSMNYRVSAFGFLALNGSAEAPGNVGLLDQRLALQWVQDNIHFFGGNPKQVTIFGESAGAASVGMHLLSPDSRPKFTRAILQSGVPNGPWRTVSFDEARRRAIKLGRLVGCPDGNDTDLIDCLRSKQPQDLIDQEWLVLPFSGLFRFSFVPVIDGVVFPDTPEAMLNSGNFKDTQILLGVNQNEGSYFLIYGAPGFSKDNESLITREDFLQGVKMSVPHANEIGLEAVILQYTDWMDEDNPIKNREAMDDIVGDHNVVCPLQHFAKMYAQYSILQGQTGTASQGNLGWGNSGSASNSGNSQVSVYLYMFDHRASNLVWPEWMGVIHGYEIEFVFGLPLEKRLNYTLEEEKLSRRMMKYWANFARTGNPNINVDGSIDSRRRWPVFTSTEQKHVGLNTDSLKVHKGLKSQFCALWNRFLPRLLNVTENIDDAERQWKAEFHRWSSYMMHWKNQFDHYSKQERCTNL
Description: (§1) The reaction started with the addition of 10 μL of DTNB and 10 μL of Ach or Bch.
(§2) Briefly, the basis for this assay is the hydrolysis of acetylthiocholine by acetylcholinesterase, producing thiocholine that reacts with DTNB. […] Degrees of inhibition were calculated according to […] wherein E and S represent enzyme activities in the presence and absence of a test sample, respectively.
(§3) The compounds of Table 1 were evaluated for anti-Alzheimer activity. In this regard, inhibitory activity against AChE (acetylcholinesterase) and BChE (butyrylcholinesterase), which lyse acetylcholine in the central nervous system, was measured according to the Experimental Method to calculate IC(inhibition concentrations)50 values.

NIH3T3 cells = test: MTT cytotoxicity assay, normal cell line NIH3T3; type: cell-based; conditions: NIH3T3 mouse embryo fibroblast, 48 hours incubation
Description: (§4) The normal cell line NIH3T3 (mouse embryo fibroblast cell-line) and the cancerous cell line B16F10 (mouse melanoma cell-line) were separately grown in 96-well plates and incubated for 48 hours with predetermined concentrations of each of the compounds. After additional incubation with MTT, absorbance at 550 nm was read using a microplate reader. Absorbance is an index accounting for a number of viable cells and was used to calculate cell proliferation rates according to the following formula. All experiments were conducted three times for reproducibility. Cell proliferation rate (%)=OD550(sample)/OD550(control)
(§5) Then, LD50 (Lethal Dose 50) values were calculated on the basis of changes in the cell proliferation rate.

B16F10 cells = test: MTT cytotoxicity assay, cancerous cell line B16F10; type: cell-based; conditions: B16F10 mouse melanoma, 48 hours incubation
Description: as §4, §5

BACE1 = target: T2, BACE1 (Homo sapiens, UniProt P56817); test: BACE1 enzyme kinetics (Dixon plot and Lineweaver plot); type: biochemical
T2 construct: purchased Pan Vera Co. (Madison, WI, USA)
T2 sequence (P56817 46-501): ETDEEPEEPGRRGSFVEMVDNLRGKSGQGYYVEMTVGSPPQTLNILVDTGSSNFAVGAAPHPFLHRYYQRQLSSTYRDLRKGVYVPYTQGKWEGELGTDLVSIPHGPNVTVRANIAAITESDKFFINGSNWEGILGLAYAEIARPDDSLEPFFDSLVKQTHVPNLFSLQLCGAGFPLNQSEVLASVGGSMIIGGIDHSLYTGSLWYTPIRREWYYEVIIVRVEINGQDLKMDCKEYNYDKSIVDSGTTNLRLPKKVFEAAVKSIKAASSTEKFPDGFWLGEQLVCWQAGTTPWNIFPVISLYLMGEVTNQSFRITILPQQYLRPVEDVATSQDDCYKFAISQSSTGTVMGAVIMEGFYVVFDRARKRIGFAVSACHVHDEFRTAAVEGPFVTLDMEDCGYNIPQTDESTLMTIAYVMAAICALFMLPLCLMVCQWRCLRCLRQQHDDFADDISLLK
Description: A BACE1 fluorescence resonance energy transfer (FRET) assay kit (β-secretase, recombinant human enzyme) was purchased from Pan Vera Co. (Madison, WI, USA). The assay was carried out according to the manual provided, with a modification made thereto as described by Jung et al. (Jung et al., Biol Pharm Bull, 2010, 33:267-272). Quercetin was used as a positive control.
In addition, an enzyme kinetics experiment was conducted using the Lineweaver plot and Dixon plot (see FIG. 7) in order to examine the BACE1 inhibition mechanism of the novel compound (Compound 2). […] The results of the experiment indicate that the novel compound of the present disclosure is a very potent inhibitor against BACE1.

[2] = target: T3, butyrylcholinesterase (BChE) (Equus caballus, UniProt P81908); test: In vitro cholinesterase activity assay (Ellman), BChE; type: biochemical; conditions: concentrations up to 125 μM; Mean ± SEM; read-out: IC50 Butyrylcholine esterase Mean ± SEM
T3 construct: horse serum butyrylcholinesterase (BChE, EC3.1.1.8); purchased Sigma-Aldrich Co. (St. Louis, MO, USA); host or cells: horse serum
T3 sequence (P81908 whole entry): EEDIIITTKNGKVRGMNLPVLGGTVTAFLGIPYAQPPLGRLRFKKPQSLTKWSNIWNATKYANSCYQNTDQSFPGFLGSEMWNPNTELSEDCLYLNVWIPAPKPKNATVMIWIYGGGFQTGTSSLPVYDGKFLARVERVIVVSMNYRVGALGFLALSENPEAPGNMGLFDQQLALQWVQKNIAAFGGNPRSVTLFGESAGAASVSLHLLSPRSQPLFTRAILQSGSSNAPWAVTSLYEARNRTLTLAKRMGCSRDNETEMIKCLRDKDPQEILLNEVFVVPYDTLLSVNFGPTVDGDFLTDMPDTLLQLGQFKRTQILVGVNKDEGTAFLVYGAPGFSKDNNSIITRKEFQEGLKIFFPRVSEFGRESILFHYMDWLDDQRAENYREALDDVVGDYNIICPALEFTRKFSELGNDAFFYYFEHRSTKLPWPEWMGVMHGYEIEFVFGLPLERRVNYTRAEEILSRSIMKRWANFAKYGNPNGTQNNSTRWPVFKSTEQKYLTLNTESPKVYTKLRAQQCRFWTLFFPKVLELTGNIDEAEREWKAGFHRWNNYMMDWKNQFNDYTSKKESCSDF
Description: as §1, §2, §3

[3] = target: T1, acetylcholinesterase (AChE); test: AChE enzyme kinetics (Dixon plot and Lineweaver plot); type: biochemical
Description: as §1, §2

[4] = target: T3, butyrylcholinesterase (BChE); test: BChE enzyme kinetics (Dixon plot and Lineweaver plot); type: biochemical
Description: as §1, §2

[5] = target: T4, BACE1 (β-secretase, recombinant human enzyme) (Homo sapiens, UniProt P56817); test: In vitro BACE1 activity assay (FRET kit); type: biochemical; conditions: compounds in 10% DMSO, concentrations up to 125 μM
T4 construct: purchased Pan Vera Co. (Madison, WI, USA)
T4 sequence (P56817 46-501): as the sequence (P56817 46-501) above
From the text: BACE1 (beta-secretase) FRET assay kit was purchased from Pan Vera Co. (Madison, WI, USA). All the chemicals and solvents used in column chromatography were of reagent grade and were used as received without further purification.
A BACE1 fluorescence resonance energy transfer (FRET) assay kit (β-secretase, recombinant human enzyme) was purchased from Pan Vera Co. (Madison, WI, USA).
BACE1 is an enzyme promotive of the production of β-amyloid, which destroys neurons. In order to examine the effects on the compounds of Table 1 on the activity of BACE1, IC(inhibition concentrations)50 values were determined by measuring BACE1 activity in vitro according to Experimental Methods.

[6] = listed as 3-[2-(1-acetylcycloproply)-1-propenyl]-5-methyl-2-cyclopenten-1-one

Row | Structure (SMILES) | IC50 [1] [µM] | LD50 Normal cell NIH3T3 (NIH3T3 cells) | LD50 Cancer cell B16F10 (B16F10 cells) | SI: selectivity index (BChE/AChE) [1] | Ki (BACE1) [µM] | IC50 [2] [µM] | other results
1 | COc1ccc2cc3[n+](cc2c1OC)CCc1cc2c(cc1-3)OCO2 [Berberine, reference compound] | 0.39 ± 0.01 |  |  |  |  |  | 
2 | CC(=O)C1(/C(C)=C\C2=CC(=O)C(C)C2)CC1 (stereo not drawn) [Compound 2, 3-[2-(1-Acetylcyclopropyl)-1-propenyl)-5-methyl-2-cyclopenten-1-one] |  | 1,550 μM | 688 µM | 0.83 | 19 |  | LD50 Normal cell NIH3T3 (NIH3T3 cells; [6]): 1,550 ± 100 μM; LD50 Cancer cell B16F10 (B16F10 cells; [6]): 688 ± 17 µM; Inhibition type BACE1 (BACE1; [6]): Mixed-type; Inhibition type BACE1 (BACE1; listed as novel compound): mixed type
3 | Cc1cc2c(c(C)c1CCO)C(=O)[C@](C)(CO)C2 [Compound 3, (2S)-pterosin A] |  | >5,000 μM |  | 1.2 |  |  | LD50 Cancer cell B16F10 (B16F10 cells; listed as (2S)-Pterosin A): 522 ± 25 µM; LD50 Cancer cell B16F10 (B16F10 cells; listed as pterosin A): 522 ± 25 µM
4 | Cc1cc2c(c(C)c1CCO)C(=O)[C@H](C)C2 [Compound 4, (2R)-pterosin B] | 16.2 ± 1 |  | >5,000 μM | 3.0 | 38.3 | 48.1 ± 0.59 | LD50 Normal cell NIH3T3 (NIH3T3 cells; listed as (2,R)-Pterosin B): 3,110 ± 130 μM; LD50 Normal cell NIH3T3 (NIH3T3 cells; listed as pterosin B): 3,110±130 μM; Inhibition type BACE1 (BACE1): noncompetitive type; Inhibition type BACE1 (BACE1; listed as (2R)-Pterosin B): Noncompetitive; Inhibition type Acetylcholinesterase [3]: mixed type; Ki [3]: 12.1 µM; Inhibition type Acetylcholinesterase ([3]; listed as (2R)-Pterosin B): Mixed-type; Inhibition type Butyrylcholinesterase [4]: noncompetitive type; Ki [4]: 53.5 µM; Inhibition type Butyrylcholinesterase ([4]; listed as (2R)-Pterosin B): Noncompetitive
5 | Cc1cc2c(c(C)c1CCO)C(=O)[C@H](C)[C@@H]2O [Compound 5, (2R,3S)-pterosin C] |  | >5,000 μM | >5,000 μM |  |  |  | 
6 | Cc1cc2c(c(C)c1CCO)C(=O)[C@@H](C)[C@@H]2O [Compound 6, (2S,3S)-pterosin C] |  | >5,000 μM | >5,000 μM |  |  |  | 
7 | Cc1cc2c(c(C)c1CCO)C(=O)[C@H](C)[C@H]2O [Compound 7, (2R,3R)-pterosin C] | 23.2 ± 4.6 | >5,000 μM | >5,000 μM | 0.89 | 27.6 | 20.3 ± 0.88 | Inhibition type BACE1 (BACE1): mixed type; Inhibition type BACE1 (BACE1; listed as (2R,3R)-Pterosin C): Mixed-type; Inhibition type Acetylcholinesterase [3]: noncompetitive type; Ki [3]: 29.6 µM; Inhibition type Acetylcholinesterase ([3]; listed as (2R,3R)-Pterosin C): Noncompetitive; Inhibition type Butyrylcholinesterase [4]: mixed type; Ki [4]: 4.77 µM; Inhibition type Butyrylcholinesterase ([4]; listed as (2R,3R)-Pterosin C): Mixed-type
8 | Cc1cc2c(c(C)c1CCO)C(=O)[C@@H](C)[C@H]2O [Compound 8, (2S,3R)-pterosin C] | 12.8 ± 0.79 | >5,000 μM | >5,000 μM | 3.5 | 33.8 | 44.3 ± 1 | Inhibition type BACE1 (BACE1): noncompetitive type; Inhibition type BACE1 (BACE1; listed as (2S,3R)-Pterosin C): Noncompetitive; Inhibition type Acetylcholinesterase [3]: mixed type; Ki [3]: 16.3 µM; Inhibition type Acetylcholinesterase ([3]; listed as (2S,3R)-Pterosin C): Mixed-type; Inhibition type Butyrylcholinesterase [4]: noncompetitive type; Ki [4]: 29.9 µM; Inhibition type Butyrylcholinesterase ([4]; listed as (2S,3R)-Pterosin C): Noncompetitive
9 | Cc1cc2c(c(C)c1CCO)C(=O)C(C)(C)[C@@H]2O [Compound 9, (3R)-Pterosin D] | 68.7 ± 3.7 | >5,000 μM | >5,000 μM |  |  | > 125 | 
10 | Cc1c(CCO)c(CO)cc2c1C(=O)[C@@H](C)C2 [Compound 10, (2S)-pterosin P] | 17.8 ± 0.62 | >5,000 μM | >5,000 μM | 3.1 |  | 55.9 ± 5.6 | 
11 | Cc1cc2c(c(C)c1CCO)C(=O)C(C)(C)C2 [Compound 11, pterosin Z] | 46.5 ± 3.4 |  |  | 1.7 |  | 80.1 ± 6.8 | LD50 Normal cell NIH3T3 (NIH3T3 cells; listed as PterosinZ): 553 ± 37 µM; LD50 Normal cell NIH3T3 (NIH3T3 cells; listed as pterosin Z): 553 ± 37 µM; LD50 Cancer cell B16F10 (B16F10 cells; listed as PterosinZ): 618 ± 71 µM; LD50 Cancer cell B16F10 (B16F10 cells; listed as pterosin Z): 618 ± 71 µM
12 | Cc1cc2c(c(C)c1CCO)C(=O)[C@](C)(COC1O[C@H](CO)[C@@H](O)[C@H](O)[C@H]1O)C2 (stereo partly drawn) [Compound 13, (2S)-pteroside A2] | 39.3 ± 1.9 | >5,000 μM | >5,000 μM | 3.0 |  |  | 
13 | Cc1cc2c(c(C)c1CCO[C@@H]1OC(CO)[C@@H](O)[C@H](O)C1O)C(=O)[C@@H](C)[C@H]2O (stereo partly drawn) [Compound 15, (2S,3R)-pteroside C] |  | >5,000 μM | >5,000 μM | 1.4 |  |  | IC50 [5]: 28.9 ± 2.2 µM
14 | Cc1cc2c(c(C)c1CCO[C@@H]1OC(CO)[C@@H](O)[C@H](O)C1O)C(=O)[C@H](C)[C@H]2O (stereo partly drawn) [Compound 16, (2R,3R)-pteroside C] |  | >5,000 μM | >5,000 μM | 1.4 | 12.6 |  | IC50 [5]: 9.74 ± 1.9 µM; Inhibition type BACE1 (BACE1): mixed type; Inhibition type BACE1 (BACE1; listed as (2R,3R)-Pteroside C): Mixed-type
15 | Cc1cc2c(c(C)c1CCO[C@@H]1OC(CO)[C@@H](O)[C@H](O)C1O)C(=O)C(C)(C)C2 (stereo partly drawn) [Compound 20, pteroside Z] | 22.4 ± 2.2 | >5,000 μM | >5,000 μM | 0.24 |  |  | IC50 [5]: 60 ± 4.3 µM
